We go through 1 compound from patent publication US20090247495A1, “CU[…] AND USES THEREOF” (priority 2007, published 2009).

In brackets after ≈: the same amount, converted by molar mass. Entries after “also recorded” stand apart in the source; their conditions may differ.

The test system of test [1] is colon cancer cell line (HT29). Put plainly: MTT cell cytotoxicity assay, HT29. The class given is cell-based, human. As to conditions: Homo sapiens, HT-29; 48 hours; read-out: IC50. Here is the method: Three human cancer cell lines (HepG2(liver), HT29(colon) and MCF-7(breast)) were purchased from American Type Culture Collection (ATCC, Manassas, Va., USA). The cells were cultured in RPMI 1640 medium supplemented with 5% (v/v) fetal bovine serum (FBS) and 100 units/ml penicillin and streptomycin (Invitrogen Life Technologies) in a humidified 5% CO2 atmosphere at 37° C.
The cytotoxic effect of CuB and CuD on these three cancer cell lines were determined using MTT (3-[4,5-dimethylthiazol-2-yl]-2,5-diphenyl tetrazolium bromide) labeled cell cytotoxicity assay. A total of 1×10^4 cells were seeded into a 96-well plate for 24 hours prior to cucurbitacin B (CuB) or cucurbitacin D (CuD) treatment. They were then treated with different dosages of CuB/CuD for 48 hours. After the treatment, 20 μl of MTT (5 mg/ml) was added to each well and incubated for 4 hrs. Then the medium was discarded and 100 μl of dimethyl sulfoxide was added. The absorbance at 570 nm was then measured by using FLUOstar OPTIMA equipment (BMG, LABTECH GmbH, Germany). The percentage of inhibition against different dosages of CuB/CuD were plotted using the Prism software and the 50% inhibition concentration (IC50) were obtained.

The subject of test [2] is Raf/Mek/Erk pathway. Put plainly: Western blot of phosphorylated c-Raf, Mek1/2, Erk1/2 and Elk-1 in K562 cells. The class given is cell-based, human. As to conditions: 50 μM. The procedure:
K562 leukemia cells were serum starved for 18 hours prior to cucurbitacin B treatment. The cells were incubated at a 75-mm culture flask filled with 10 ml growth medium (RPMI with 10% FBS and 1% PS) at the cell density of 1×10^5 cells/ml in the presence or absence of cucurbitacin B for various time intervals. The drug treatment were terminated by centrifugation at 1500 rpm for 5 minutes and the cells were rinsed twice with phosphate-buffered saline and lysed at 4° C. in a lysis buffer containing 50 mM Tris-HCl, pH7.5, […], 5 mM EDTA, 40 mM NaP2O7, 1% Triton X-100, 1 mM dithiothreitol, 200 μM Na3VO4, 100 μM phenylmethysufonyl fluoride, 2 μg/ml leupeptin, 4 μg/ml aprotinin and 0.7 μg/ml pepstatin. The insoluble protein lysate were removed by centrifugation for 10 minutes at 13000 rpm. Fifteen micrograms of protein lysate was resolved using SDS-polyacryamide gel electrophoresis (PAGE) (usually 8%-12% polyacrylamide gel) and then subjected to western blot anaylsis. Western blots were performed with antibodies specific for phosphorylated and total Stat3, c-Raf, Mek, and Erk. […]
In order to further investigate if cucurbitacin B block the Stat3 activation is truly through Erk pathway in K562 cells, the ability of cucurbitacin B to inhibit the Ras/Raf/Mek/Erk pathway was determined by measuring Ras-GTP, phosphorylation of c-Raf, Mek1/2, Erk1/2 and Elk-1 in K562 cells. […]

Test [3] concerns K562 cells. Put plainly: Flow cytometry for cell cycle analysis, K562. The class given is cell-based, human. Conditions: 80 nM, 48 hours, serum starved 24 hours. Here is the method:
K562 cells were serum starved for 24 hours prior to cucurbitacin B treatment. After 48 hours of treatment, the cells were collected and rinsed twice with phosphate-buffer saline and fixed with 80% ice-cold ethanol for […]. Then, the cells were stained with propidium iodine at 1 mg/ml for 15 minutes at room temperature. The stained cells were analyzed by flow cytometry (FACS Calibur BD Flow Cytometer) • 6.1.6 Western Blot Analysis
Appropriate numbers of cell density were serum starved for 24 hours prior to treatment with different doses of cucurbitacin B for 2 days. The cell cycle analysis profile of K562 cells after cucurbitacin B treatment were detected using Flow Cytometry analysis after fixed with 80% ice-cold ethanol at 4° C. and then stained with PI for 15 minutes.

The test system of test [4] is Prostate cancer. The test is described as follows: SRB growth inhibition, prostate cancer lines of the NCI panel. Format: cell-based. Conditions: Homo sapiens, 48 hours. The source says: Human cancer cell lines from the 59-NCI Cancer Cell Line Panel including leukemia, melanoma and cancers of breast, brain, colon, lung, ovary, prostate and kidney, were purchased from the National Institute of Cancer (USA). The growth inhibition (GI50) of these cell lines treated with cucurbitacin B and cucurbitacin D in various concentrations was investigated.
59 human cancer cell lines were maintained in RPMI 1640 (Invitrogen Life Technologies, CA, USA) supplemented with 5% Fetal Bovine Serum, 2 mM L-glutamine and 1% Penicillin/Streptomycin (Invitrogen Life Technologies) at 37° C. with 5% CO2. All chemicals were purchased from Sigma (St. Louis, Mo., USA) unless specified otherwise.
Sulforhodamine B (SRB) assay was applied to determine the cytostatic effect of cucurbitacin B and cucurbitacin D. SRB is a dye that binds to cellular proteins and will be dissolved in base. The biomass of total protein can be measured at 520 nm using a plate reader.
Cells were inoculated into 96-well microtiter plates including “Time zero” (Tz) plates in 100 μl at cell concentrations from 5000 to 40,000 cells per well according to NCI guideline. The cells were incubated at 37° C. with 5% CO2 for 24 hours. […] Bound SRB was solubilized with 100-200 ul per well of 10 mM trizma base and absorbance was measured at a wavelength of 520 nm. The percentage of growth inhibition was calculated as follows: […]

`CC(=O)OC(C)(C)/C=C/C(=O)[C@](C)(O)C1[C@H](O)C[C@@]2(C)C3CC=C4C(C[C@H](O)C(=O)C4(C)C)[C@]3(C)C(=O)C[C@]12C` (some centres unmarked) [cucurbitacin B]: in test [1], the IC50 amounted to 0.31 µg/mL (≈ 0.555 µM). In addition, the “activation (phosphorylation) of c-Raf, Mek1/2, Erk1/2 and Elk-1” value in test [2] (5 minutes treatment) was “significantly inhibited; also recorded: significant disruption”. The “inhibition of the Raf/Mek/Erk pathway” value in test [2] (4 hours) was “Complete inhibition”. In test [3], the “percentage in the G2/M phase” value came out at 70%. The compound also gave a GI50 in test [4] of 17 nM.
